Test results as given in patent publication US20090304632A1, “HETEROCYCLIC NF-kB INHIBITORS” (priority 2007, published 2009).
pEC50, pIC50: −log10 of the molar value. Read-outs that look alike come from different tables or passages of the source.

Tests used:
[1] = tested on: NF-κB; assay: NF-κB inflammation assay (PRINCESS NINA Instant Assay, A549-NF-κB-SEAP reporter cells); format: cell-based; conditions: for pEC50: A549-NF-κB-SEAP reporter cells stimulated with 2 ng/ml TNF-α, read-out: Biological activity (EC50, NF-κB inflammation assay)
[2] = tested on: mouse splenocytes; assay: Cytokine production of mouse splenocytes stimulated with CD3/CD28; format: cell-based; conditions: 10 μM
[3] = tested on: influenza strain H7N7; format: in vivo, mouse
[4] = tested on: Influenza A virus H5N1-strain; format: cell-based; conditions: 5 μM, infected A549 cells
[5] = tested on: mouse T-cell; assay: Mouse T-cell proliferation; format: cell-based
[6] = tested on: hematological cell lines; assay: In-vitro antitumor activity in human tumor cell lines (monolayer assay, propidium iodide); format: cell-based
[7] = tested on: influenza strain H5N1; format: in vivo, mouse
[8] = tested on: bird flu virus H5N1 (strain MB1); format: in vivo, mouse; conditions: H5N1 infected mice, daily 15 mg/kg i.p. for two days
[9] = tested on: human lymphocyte; assay: T-lymphocyte proliferation assay (stimulated PBMC, BrdU); format: cell-based
[10] = tested on: human PBMCs; assay: Cytokine production of human PBMCs; format: cell-based; conditions: for pEC50: Homo sapiens, PBMC, 48 h, 48 hours
[11] = tested on: A549 cells; assay: Determination of cell viability (MTT staining); format: cell-based
Description: Cell lines (e.g. A549) incubated with compounds of the invention were assessed on cell viability by means of MTT staining.

[12] = tested on: Fowl Plaque Virus, H7N7-strain; format: cell-based, Influenza A virus; conditions: 5 μM, infected A549 cells
[13] = tested on: influenza virus; assay: Antiviral combination with interferon-α

Question: With `COc1cc2ncnc(N3CCC(c4nc(C(=O)Nc5nc6cc(C(=O)c7ccccc7)ccc6[nH]5)cs4)CC3)c2cc1OC` [Compound 14, N-(5-benzoyl-1H-benzo[d]imidazol-2-yl)-2-(1-(6,7-dimethoxyquinazolin-4-yl)piperidin-4-yl)thiazole-4-carboxamide] as the compound, how does the pEC50 [1] read?
Answer: The pEC50 was greater than 5.00.

Question: `N#Cc1ccnc(N2CCC(c3nc(C(=O)Nc4nc5ccc(C(=O)c6ccccc6)cc5[nH]4)cs3)CC2)c1` [Compound 3, N-(6-benzoyl-1H-benzo[d]imidazol-2-yl)-2-(1-(4-cyanopyridin-2-yl)piperidin-4-yl)thiazole-4-carboxamide] was tested. Which pEC50 [1] did it give?
Answer: Its pEC50 is 4.00 to 4.52.

Question: With `O=C(c1ccccc1)c1ccc2[nH]c(NC(=O)c3csc(C4CCN(C(=O)c5ccccc5OC(F)(F)F)CC4)n3)nc2c1` [Compound 16, N-(5-benzoyl-1H-benzo[d]imidazol-2-yl)-2-(1-(2-(trifluoromethoxy)benzoyl)piperidin-4-yl)thiazole-4-carboxamide] as the compound, how does the pEC50 [1] read?
Answer: Its pEC50 is greater than 5.00.

Question: How did the “cytokine production, all measured cytokines” value ([2]; after 24 hours) turn out when `O=C(c1ccccc1)c1ccc2nc(NC(=O)c3csc(C4CCN(c5ncnc6ccsc56)CC4)n3)[nH]c2c1` [Compound 4, N-(6-benzoyl-1H-benzo[d]imidazol-2-yl)-2-(1-(thieno[3,2-d]pyrimidin-4-yl)piperidin-4-yl)thiazole-4-carboxamide] was run?
Answer: Its value is “completely inhibited”.

Question: And the “reduction of secretion of most cytokines” value ([2]; after 48 hours)?
Answer: The value was “more than 90 % of the DMSO control”.

Question: And the pEC50 [1]?
Answer: Its pEC50 is greater than 5.00.

Question: What about the pIC50 ([1]; read-out: NF-κB reporter gene assay IC50) of the same compound?
Answer: Its pIC50 is roughly 7.00.

Question: What about the “protection of infected mice (survival)” value ([3]; LD50 H7N7, 15 mg/kg daily i.p. day 0 to day 8, end day 14, p<0.05) of the same compound?
Answer: The value was “complete protection”.

Question: And the “protection of infected mice (survival)” value ([3]; LD50 H7N7, daily i.v. day 0 to day 4, doses equal or higher 5 mg/kg, end day 14, p<0.05)?
Answer: The value was “significant protection”.

Question: And the “reduction of virus titer” value [4]?
Answer: Its value is 4 log units.

Question: And the “mouse T-cell proliferation” value [5]?
Answer: The value was “inhibits”.

Question: What about the “multiple myeloma derived cell lines above average sensitive” value ([6]; cell lines derived from multiple myelomas) of the same compound?
Answer: The value was 4 out of 5.

Question: And the “score of tumor sensitivity” value ([6]; panel of hematological cell lines)?
Answer: Its value is “excellent score of tumor sensitivity”.

Question: What about the “protection of infected mice (survival)” value ([7]; LD50 H5N1, treatment from day 4 to day 10, 7.5 mg/kg b.id. and 15 mg/kg daily i.p., end day 14, p=0.05) of the same compound?
Answer: The value was “significant protection”.

Question: And the “protection of infected mice (survival)” value ([7]; LD50 H5N1, two times 7.5 mg/kg daily i.p. day 0 to day 10, end day 14, p<0.05)?
Answer: Its value is “significant protection”.

Question: What about the “expression of H5N1 specific mRNA in the lung” value [8] of the same compound?
Answer: The value was “reduced expression”.

Question: And the “transcription of IL-6 and IP-10 genes in the lung” value [8]?
Answer: The value was “reduced transcription”.

Question: What about the human lymphocyte proliferation [9] of the same compound?
Answer: Its human lymphocyte proliferation is “inhibits”.

Question: And the pEC50 ([10]; LPS stimulation, read-out: IL-6 secretion EC50)?
Answer: Its pEC50 is 6.22.

Question: And the pEC50 ([10]; LPS stimulation, read-out: TNF-alpha secretion EC50)?
Answer: Its pEC50 is 4.90.

Question: What about the pEC50 ([10]; PHA stimulation, read-out: IL-6 secretion EC50) of the same compound?
Answer: Its pEC50 is 6.70.

Question: And the pEC50 ([10]; PHA stimulation, read-out: INF-gamma secretion EC50)?
Answer: Its pEC50 is 5.05.

Question: And the pEC50 ([10]; PHA stimulation, read-out: TNF-alpha secretion EC50)?
Answer: The pEC50 was 5.10.

Question: And the “secretion of cytokines like IL-1beta, IL-6, IL-8, IFN-gamma, and TNF-alpha” value ([10]; stimulated with CL075)?
Answer: The value was “blocked”.

Question: What about the “secretion of cytokines like IL-6 and IL-8” value ([10]; stimulated with IL-1beta) of the same compound?
Answer: Its value is “blocked”.

Question: What about the “secretion of cytokines like IL-8, IL-1beta, INF-gamma, TNF-alpha, IL-10, and IL-6” value ([10]; stimulated with LPS) of the same compound?
Answer: Its value is “blocked”.

Question: And the “secretion of cytokines like IL-6 and IL-8” value ([10]; stimulated with ODN1668)?
Answer: The value was “blocked”.

Question: What about the “secretion of cytokines like IL-8 and IFN-gamma” value ([10]; stimulated with ODN2216) of the same compound?
Answer: The value was “blocked”.

Question: What about the “secretion of cytokines like IL-1beta, IL-6, IL-2, IL-8, IL-10, IL-12p70, INF-gamma, and TNF-alpha” value ([10]; stimulated with PHA) of the same compound?
Answer: Its value is “blocked”.

Question: What about the “secretion of cytokines like IL-1beta, IL-6, and IL-8” value ([10]; stimulated with TNF-alpha) of the same compound?
Answer: The value was “blocked”.

Question: What about the cytotoxicity [11] of the same compound?
Answer: Its cytotoxicity is “not cytotoxic”.

Question: What about the “cell viability versus DMSO treated and untreated cells” value ([11]; 5 μM, absence of virus, MTT staining, 96 hours) of the same compound?
Answer: Its value is “the same”.

Question: And the “reduction of virus titer” value [12]?
Answer: The value was 5 log units.

Question: What about the “synergism in anti-viral efficacy and toxicity antagonism of combination with INFα versus IFNα combination with ribavirin” value ([13]; combination with INFα) of the same compound?
Answer: Its value is “stronger synergism”.

Question: What about the “antiviral effects in combination with INF-α” value ([13]; combination with interferon-α) of the same compound?
Answer: The value was “synergistic antiviral effects”.

Question: `O=CN1CCC(c2nc(C(=O)Nc3nc4cc(C(=O)c5ccccc5)ccc4[nH]3)cs2)CC1` [Compound 7, N-(5-benzoyl-1H-benzo[d]imidazol-2-yl)-2-(1-formylpiperidin-4-yl)thiazole-4-carboxamide] was tested. Which pEC50 [1] did it give?
Answer: The pEC50 was greater than 5.00.

Question: With `Cc1cc2nccc(N3CCC(c4nc(C(=O)Nc5nc6cc(C(=O)c7ccccc7)ccc6[nH]5)cs4)CC3)n2n1` [Compound 9, N-(5-benzoyl-1H-benzo[d]imidazol-2-yl)-2-(1-(2-methylpyrazolo[1,5-a]pyrimidin-7-yl)piperidin-4-yl)thiazole-4-carboxamide] as the compound, how does the pEC50 [1] read?
Answer: Its pEC50 is greater than 5.00.

Question: How did the pEC50 [1] turn out when `COC(=O)c1cn2ncnc(N3CCC(c4nc(C(=O)Nc5nc6cc(C(=O)c7ccccc7)ccc6[nH]5)cs4)CC3)c2c1C` [Compound 8, Methyl 4-(4-(4-(5-benzoyl-1H-benzo[d]imidazol-2-ylcarbamoyl)thiazol-2-yl)piperidin-1-yl)-5-methylpyrrolo[1,2-f][1,2,4]triazine-6-carboxylate] was run?
Answer: Its pEC50 is 4.00 to 4.52.

Question: How did the pEC50 [1] turn out when `O=C(c1ccccc1)c1ccc2nc(NC(=O)c3csc(C4CCN(C(=O)Nc5cc(Cl)nc(Cl)c5)CC4)n3)[nH]c2c1` [Compound 12, N-(6-benzoyl-1H-benzo[d]imidazol-2-yl)-2-(1-(2,6-dichloropyridin-4-ylcarbamoyl)piperidin-4-yl)thiazole-4-carboxamide] was run?
Answer: The pEC50 was greater than 5.00.

Question: How did the pEC50 [1] turn out when `O=C(c1ccccc1)c1ccc2[nH]c(NC(=O)c3csc(C4CCN(c5ccncc5[N+](=O)[O-])CC4)n3)nc2c1` [Compound 15, N-(5-benzoyl-1H-benzo[d]imidazol-2-yl)-2-(1-(3-nitropyridin-4-yl)piperidin-4-yl)thiazole-4-carboxamide] was run?
Answer: Its pEC50 is greater than 5.00.

Question: `O=C(c1ccccc1)c1ccc2nc(NC(=O)c3csc(C4CCN(c5ncnc6nc[nH]c56)CC4)n3)[nH]c2c1` [Compound 2, 2-(1-(7H-purin-6-yl)piperidin-4-yl)-N-(6-benzoyl-1H-benzo[d]imidazol-2-yl)thiazole-4-carboxamide] was tested. Which pEC50 [1] did it give?
Answer: Its pEC50 is greater than 5.00.

Question: With `COc1cc2c(N3CCC(c4nc(C(=O)Nc5nc6cc(C(=O)c7ccccc7)ccc6[nH]5)cs4)CC3)ncnc2cc1OCCCN1CCN(C)CC1` [Compound 6, N-(5-benzoyl-1H-benzo[d]imidazol-2-yl)-2-(1-(6-methoxy-7-(3-(4-methylpiperazin-1-yl)propoxy)quinazolin-4-yl)piperidin-4-yl)thiazole-4-carboxamide] as the compound, how does the pEC50 [1] read?
Answer: Its pEC50 is greater than 5.00.

Question: `COc1cc(N2CCC(c3nc(C(=O)Nc4nc5ccc(C(=O)c6ccccc6)cc5[nH]4)cs3)CC2)nc(OC)n1` [Compound 1, N-(6-benzoyl-1H-benzo[d]imidazol-2-yl)-2-(1-(2,6-dimethoxypyrimidin-4-yl)piperidin-4-yl)thiazole-4-carboxamide] was tested. Which pEC50 [1] did it give?
Answer: The pEC50 was greater than 5.00.

Question: How did the pEC50 [1] turn out when `COc1nc(OC)nc(N2CCC(c3nc(C(=O)Nc4nc5cc(C(=O)c6ccccc6)ccc5[nH]4)cs3)CC2)n1` [Compound 13, N-(5-benzoyl-1H-benzo[d]imidazol-2-yl)-2-(1-(4,6-dimethoxy-1,3,5-triazin-2-yl)piperidin-4-yl)thiazole-4-carboxamide] was run?
Answer: The pEC50 was greater than 5.00.

Question: `O=C(c1ccccc1)c1ccc2nc(NC(=O)c3csc(C4CCN(c5cc(C(F)(F)F)ncn5)CC4)n3)[nH]c2c1` [Compound 5, N-(6-benzoyl-1H-benzo[d]imidazol-2-yl)-2-(1-(6-(trifluoromethyl)pyrimidin-4-yl)piperidin-4-yl)thiazole-4-carboxamide] was tested. Which pEC50 [1] did it give?
Answer: The pEC50 was 4.52 to 5.00.

Question: `COC(=O)c1nc2nccc(N3CCC(c4nc(C(=O)Nc5nc6cc(C(=O)c7ccccc7)ccc6[nH]5)cs4)CC3)n2n1` [Compound 11, Methyl 7-(4-(4-(5-benzoyl-1H-benzo[d]imidazol-2-ylcarbamoyl)thiazol-2-yl)piperidin-1-yl)-[1,2,4]triazolo[1,5-a]pyrimidine-2-carboxylate] was tested. Which pEC50 [1] did it give?
Answer: The pEC50 was greater than 5.00.

Question: With `Cc1cc2nnc(C(=O)N3CCC(c4nc(C(=O)Nc5nc6cc(C(=O)c7ccccc7)ccc6[nH]5)cs4)CC3)c(C)n2n1` [Compound 17, N-(5-benzoyl-1H-benzo[d]imidazol-2-yl)-2-(1-(4,7-dimethylpyrazolo[5,1-c][1,2,4]triazine-3-carbonyl)piperidin-4-yl)thiazole-4-carboxamide] as the compound, how does the pEC50 [1] read?
Answer: Its pEC50 is greater than 5.00.

Question: How did the pEC50 [1] turn out when `O=C(c1ccccc1)c1ccc2[nH]c(NC(=O)c3csc(C4CCN(c5ccnc6ncnn56)CC4)n3)nc2c1` [Compound 10, 2-(1-([1,2,4]triazolo[1,5-a]pyrimidin-7-yl)piperidin-4-yl)-N-(5-benzoyl-1H-benzo[d]imidazol-2-yl)thiazole-4-carboxamide] was run?
Answer: Its pEC50 is greater than 5.00.
